Test results taken from US7691848B2, “Pyrrolobenzodiazepine arylcarboxamides and derivatives thereof as follicle-stimulating hormone receptor antagonists” (Wyeth, priority 2005, dated 2010).

Experiments:
human FSH receptor = biological target: T1, human FSH receptor (Homo sapiens, UniProt P23945); test: Follicle-Stimulating Hormone Receptor-Dependent Cre-Luciferase Reporter Gene Assay (CHO FSH-R 6CRE-Luc cells); type: cell-based; details: dose-response format, in presence of EC50 of purified human FSH
T1 construct: host or cells: CHO-K1 (CHO FSH-R 6CRE-Luc, 1D7 cells)
T1 sequence (P23945 18-695): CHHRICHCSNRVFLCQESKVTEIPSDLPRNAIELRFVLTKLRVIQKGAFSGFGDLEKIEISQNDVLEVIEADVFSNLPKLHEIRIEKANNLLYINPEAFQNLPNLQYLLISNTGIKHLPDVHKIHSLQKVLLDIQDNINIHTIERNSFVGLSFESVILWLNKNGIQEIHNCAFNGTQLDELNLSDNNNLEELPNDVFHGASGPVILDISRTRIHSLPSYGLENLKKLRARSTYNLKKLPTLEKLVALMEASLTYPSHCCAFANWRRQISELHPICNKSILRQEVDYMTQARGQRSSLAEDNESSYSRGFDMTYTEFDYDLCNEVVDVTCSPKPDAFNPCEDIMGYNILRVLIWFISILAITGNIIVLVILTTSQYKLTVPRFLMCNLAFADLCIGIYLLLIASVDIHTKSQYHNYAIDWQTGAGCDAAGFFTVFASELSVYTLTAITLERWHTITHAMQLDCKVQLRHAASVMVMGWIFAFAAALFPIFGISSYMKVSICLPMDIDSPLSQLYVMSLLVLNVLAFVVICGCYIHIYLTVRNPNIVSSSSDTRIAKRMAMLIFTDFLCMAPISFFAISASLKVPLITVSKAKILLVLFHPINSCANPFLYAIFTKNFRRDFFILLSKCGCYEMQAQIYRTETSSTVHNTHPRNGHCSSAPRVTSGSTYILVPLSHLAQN
In short: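 CHO-K1 cells stably expressing human FSH receptor and a 6×CRE-driven luciferase reporter; compounds in growth medium with 0.2% DMSO, incubated 4 h at 37 °C. Luciferase measured by chemiluminescence (RLU/sec/well); 2-dose results given as percent inhibition of the response to an EC50 concentration of FSH.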

hFSH-R = biological target: T2, hFSH-R (Homo sapiens, UniProt P23945); test: cAMP accumulation (RIA) in CHO-3D2 cells (hFSH-R), hFSH-induced; type: cell-based; details: for Emax: read-out: cAMP % efficacy
T2 construct: expressed in transfected cells; host or cells: CHO-3D2 cells (CHO-K1 parental line)
T2 sequence (P23945 18-695): T1 sequence (P23945 18-695)
Protocol: In Vitro Bio-Assay, Selectivity and Dependency of Agonists and Antagonists to the FSH Receptor
Compound Vehicle: Stock compounds were solubilized in 100% DMSO (Sigma-Aldrich Chemical Co., St. Louis, Mo.) at a concentration of 30 mM. The compounds subsequently were diluted in sterile assay medium consisting of Opti-MEM® I (Invitrogen/Life Technologies, Carlsbad, Calif.) with 0.1% (w/v) BSA (Sigma-Aldrich) prior to use in the bio-assay. The final concentration of DMSO in the assay was 0.1%.
Plated cells are then incubated at 37° C. in a humidified 5% CO2/95% air atmosphere.
Assay: On the day of the assay, cells were washed three times with 100 μl/well of assay medium consisting of Opti-MEM® I (Invitrogen/Life Technologies) with 0.1% (w/v) BSA (Sigma-Aldrich). Medium was removed and 100 μl of assay medium was added to each well. Plates were incubated for an additional 30 minutes at 37° C. […] Reactions were terminated by the addition of 50 μl of 0.2N hydrochloric acid to each well and cAMP-accumulation was measured by radioimmunoassay (RIA) using a commercially available kit (Amersham Biosciences, Piscataway, N.J.).
All test compounds were evaluated in a dose-response paradigm ranging from 0.01 to 30 μM. Controls and test compounds were evaluated in quadruplicate in a 96-well format.
Along with the test compounds, FSH also was run as a positive control in the agonist mode using concentrations ranging from 0.1-1000 ng/ml.
Data were analyzed by one-way analysis of variance and significant differences between treatments and control determined by Least Significant Difference test.
Test compounds were compared to the effect of purified human FSH.

Row | Compound | IC50 (human FSH receptor) [µM] | IC50 (hFSH-R) [µM] | melting point [°C] | Emax (hFSH-R) [%]
1 | Cc1ccccc1-c1ccc(C(=O)N2Cc3ccc(C(=O)NCc4cccc(N)c4)n3Cc3ccccc32)cc1C [Example 34] | 5.37 | 2.6 | 105 to 115 | 
2 | COc1cc(C(=O)N2Cc3ccc(C(=O)NCc4ccc5c(c4)OCO5)n3Cc3ccccc32)ccc1-c1ccccc1C [Example 40] | 1.05 | 0.4 | 167 to 168 | 90
3 | COc1cc(C(=O)N2Cc3ccc(C(=O)NCc4cccc(C(F)(F)F)c4)n3Cc3ccccc32)ccc1-c1ccccc1C [Example 42, 10-[(2-METHOXY-2′-METHYL-1,1′-BIPHENYL-4-YL)CARBONYL]-N-[3-(TRIFLUOROMETHYL)BENZYL]-10,11-DIHYDRO-5H-PYRROLO[2,1-C][1,4]BENZODIAZEPINE-3-CARBOXAMIDE] | 4.33 | 6.3 | 176 to 177 | 74
4 | COc1cc(C(=O)N2Cc3ccc(C(=O)NCCc4ccc(O)cc4)n3Cc3ccccc32)ccc1-c1ccccc1C [Example 55, N-[2-(4-HYDROXYPHENYL)ETHYL]-10-[(2-METHOXY-2′-METHYL-1,1′-BIPHENYL-4-YL)CARBONYL]-10,11-DIHYDRO-5H-PYRROLO[2,1-C][1,4]BENZODIAZEPINE-3-CARBOXAMIDE] | > 30 | 13 | 190 to 194 | 60
5 | COc1cc(C(=O)N2Cc3ccc(C(=O)NCc4ccc5c(c4)OCCO5)n3Cc3ccccc32)ccc1-c1ccccc1C [Example 64] | 3.4 | 1.3 | 153 to 155 | 79

More lines, now with the values ahead:

Row | IC50 (human FSH receptor) [µM] | IC50 (hFSH-R) [µM] | melting point [°C] | Emax (hFSH-R) [%] | Compound
6 | 4.03 | 0.7 | 165 to 166 | 80 | COc1cc(C(=O)N2Cc3ccc(C(=O)NCc4cccc(C)c4)n3Cc3ccccc32)ccc1-c1ccccc1C [Example 37, 10-[(2-METHOXY-2′-METHYL-1,1′-BIPHENYL-4-YL)CARBONYL]-N-(3-METHYLBENZYL)-10,11-DIHYDRO-5H-PYRROLO[2,1-C][1,4]BENZODIAZEPINE-3-CARBOXAMIDE]
7 | 1.69 | 0.5 | 179 to 180 | 83 | COc1cc(C(=O)N2Cc3ccc(C(=O)NCc4ccc(C)cc4)n3Cc3ccccc32)ccc1-c1ccccc1C [Example 38, 10-[(2-METHOXY-2′-METHYL-1,1′-BIPHENYL-4-YL)CARBONYL]-N-(4-METHYLBENZYL)-10,11-DIHYDRO-5H-PYRROLO[2,1-C][1,4]BENZODIAZEPINE-3-CARBOXAMIDE]
8 | 1.35 | > 30 | 170 to 174 |  | COc1cc(C(=O)N2Cc3ccc(C(=O)NCc4ccccc4)n3Cc3ccccc32)ccc1-c1ccccc1C [Example 44, N-BENZYL-10-[(2-METHOXY-2′-METHYL-1,1′-BIPHENYL-4-YL)CARBONYL]-10,11-DIHYDRO-5H-PYRROLO[2,1-C][1,4]BENZODIAZEPINE-3-CARBOXAMIDE]
9 | 1.13 | 0.4 | 214 to 215 | 95 | COc1cc(C(=O)N2Cc3ccc(C(=O)NCc4ccc(F)cc4)n3Cc3ccccc32)ccc1-c1ccccc1C [Example 60, N-(4-FLUOROBENZYL)-10-[(2-METHOXY-2′-METHYL-1,1′-BIPHENYL-4-YL)CARBONYL]-10,11-DIHYDRO-5H-PYRROLO[2,1-C][1,4]BENZODIAZEPINE-3-CARBOXAMIDE]
